In paper PMC8389614, “A Comparison of Acute Pharmacological Effects of Methylone and MDMA Administration in Humans and Oral Fluid Concentrations as Biomarkers of Exposure” (Biology, 2021):

Experiment: Oral fluid to blood (OF/B) concentration ratio and plasma concentration
Settings: human

CNC(C)C(=O)c1ccc(C)cc1 (stereo not shown) [mephedrone, 4-methylmethcathinone]
Kp (oral, 200 mg): 22.3
Kp (po, 100 mg): 49.4
Kp (po, 150 mg): 4.28
Kp (po, 200 mg): 11.7
